Experimental data published in the NIST ThermoML archive (doi:10.1021/acs.jced.5b00369).
Numbers after ± are expanded uncertainties.

Assay: relative permittivity at zero frequency (dimensionless); xn = mol fraction of the nth substance listed
Details: 101 kPa, Liquid

CCC[N+](=O)[O-] [1-nitropropane] + C1CCCCC1
298.15 K, two-cell dielectric cell
Details	relative permittivity at zero frequency
x1 = 0.003184	2.05488 ± 0.00049
x1 = 0.006527	2.09539 ± 0.00025
x1 = 0.01302	2.1734 ± 0.00025
x1 = 0.01942	2.24959 ± 0.00025
x1 = 0.02574	2.3244 ± 0.00024
x1 = 0.02693	2.33815 ± 0.00024
x1 = 0.02818	2.3525 ± 0.00025
x1 = 0.03015	2.37603 ± 0.00025
x1 = 0.03648	2.4508 ± 0.00025
x1 = 0.04272	2.52479 ± 0.00025
x1 = 0.04887	2.59808 ± 0.00025
x1 = 0.05327	2.64994 ± 0.00025
x1 = 0.05626	2.68544 ± 0.00025
x1 = 0.0594	2.72327 ± 0.00026
x1 = 0.06549	2.79734 ± 0.00026
x1 = 0.07152	2.87045 ± 0.00026
x1 = 0.07893	2.96124 ± 0.00026

CCC[N+](=O)[O-] [1-nitropropane] + Cc1ccc(C)cc1
298.15 K, two-cell dielectric cell
Details	relative permittivity at zero frequency
x1 = 0.005128	2.31627 ± 0.00024
x1 = 0.007441	2.34224 ± 0.00024
x1 = 0.01482	2.4248 ± 0.00024
x1 = 0.0221	2.50652 ± 0.00024
x1 = 0.02927	2.58754 ± 0.00024
x1 = 0.03246	2.62349 ± 0.00024
x1 = 0.03388	2.63942 ± 0.00024
x1 = 0.03604	2.66416 ± 0.00024
x1 = 0.03819	2.68861 ± 0.00024
x1 = 0.04527	2.77022 ± 0.00024
x1 = 0.05226	2.85114 ± 0.00025
x1 = 0.05913	2.93159 ± 0.00025

ClC(Cl)(Cl)Cl [tetrachloromethane] + C[N+](=O)[O-]
two-terminal dielectric cell
Details	relative permittivity at zero frequency
298.15 K, x2 = 0.00098	2.24081 ± 0.001
298.15 K, x2 = 0.001471	2.24714 ± 0.00051
298.15 K, x2 = 0.001979	2.25361 ± 0.00051
298.15 K, x2 = 0.002444	2.25959 ± 0.00051
298.15 K, x2 = 0.002927	2.26574 ± 0.00051
298.15 K, x2 = 0.003884	2.27791 ± 0.00051
298.15 K, x2 = 0.004245	2.28249 ± 0.00051
298.15 K, x2 = 0.00484	2.29002 ± 0.00051
298.15 K, x2 = 0.005797	2.30213 ± 0.00026
298.15 K, x2 = 0.006743	2.31404 ± 0.00026
298.15 K, x2 = 0.007679	2.32583 ± 0.00026
298.15 K, x2 = 0.008374	2.33457 ± 0.00026
298.15 K, x2 = 0.01041	2.35982 ± 0.00026
298.15 K, x2 = 0.01242	2.38483 ± 0.00026
298.15 K, x2 = 0.01439	2.40939 ± 0.00026
298.15 K, x2 = 0.01577	2.42642 ± 0.00026
298.15 K, x2 = 0.01737	2.44616 ± 0.00026
298.15 K, x2 = 0.01871	2.46233 ± 0.00026
298.15 K, x2 = 0.02204	2.50367 ± 0.00026
298.15 K, x2 = 0.02674	2.56122 ± 0.00026
298.15 K, x2 = 0.03418	2.65322 ± 0.00026
298.15 K, x2 = 0.04333	2.76524 ± 0.00026
298.15 K, x2 = 0.0523	2.87591 ± 0.00026
298.15 K, x2 = 0.0567	2.92988 ± 0.00026
318.15 K, x2 = 0.000162	2.23812 ± 0.00098
318.15 K, x2 = 0.000418	2.24125 ± 0.001
318.15 K, x2 = 0.0008265	2.24641 ± 0.001
318.15 K, x2 = 0.001238	2.25158 ± 0.0005
318.15 K, x2 = 0.001648	2.25667 ± 0.0005
318.15 K, x2 = 0.002055	2.26176 ± 0.0005
318.15 K, x2 = 0.00246	2.26679 ± 0.0005
318.15 K, x2 = 0.003263	2.2768 ± 0.0005
318.15 K, x2 = 0.003558	2.28051 ± 0.0005
318.15 K, x2 = 0.004468	2.29186 ± 0.0005
318.15 K, x2 = 0.005663	2.30678 ± 0.00026
318.15 K, x2 = 0.007033	2.3239 ± 0.00026
318.15 K, x2 = 0.007748	2.33263 ± 0.00026
318.15 K, x2 = 0.009707	2.35737 ± 0.00027
318.15 K, x2 = 0.0113	2.37756 ± 0.00026
318.15 K, x2 = 0.01572	2.4327 ± 0.00026
318.15 K, x2 = 0.02009	2.48822 ± 0.00026
318.15 K, x2 = 0.02486	2.54795 ± 0.00026
318.15 K, x2 = 0.02873	2.59732 ± 0.00027
318.15 K, x2 = 0.03299	2.65111 ± 0.00027
318.15 K, x2 = 0.0414	2.75865 ± 0.00027
318.15 K, x2 = 0.04472	2.80151 ± 0.00027
318.15 K, x2 = 0.054	2.91886 ± 0.00027
318.15 K, x2 = 0.06623	3.07885 ± 0.00027
318.15 K, x2 = 0.07426	3.18574 ± 0.00027
318.15 K, x2 = 0.08027	3.26614 ± 0.00027

CC[N+](=O)[O-] [nitroethane] + ClC(Cl)(Cl)Cl
298.15 K, two-terminal dielectric cell
Details	relative permittivity at zero frequency
x1 = 0.003529	2.27902 ± 0.00056
x1 = 0.00724	2.3313 ± 0.00029
x1 = 0.01443	2.4321 ± 0.00029
x1 = 0.02153	2.53048 ± 0.00029
x1 = 0.02851	2.62767 ± 0.00029
x1 = 0.0311	2.6639 ± 0.00029
x1 = 0.03397	2.7038 ± 0.00029
x1 = 0.04093	2.80121 ± 0.00029
x1 = 0.04779	2.89785 ± 0.00029
x1 = 0.05456	2.9938 ± 0.00029

CC(C)[N+](=O)[O-] [2-nitropropane] + Cc1ccc(C)cc1
298.15 K, two-terminal dielectric cell
Details	relative permittivity at zero frequency
x1 = 0.005471	2.32313 ± 0.00025
x1 = 0.007307	2.34454 ± 0.00025
x1 = 0.01457	2.42922 ± 0.00025
x1 = 0.02174	2.51328 ± 0.00025
x1 = 0.02879	2.59677 ± 0.00025
x1 = 0.03194	2.63439 ± 0.00025
x1 = 0.03336	2.65058 ± 0.00025
x1 = 0.03555	2.67711 ± 0.00025
x1 = 0.04256	2.76165 ± 0.00026
x1 = 0.04948	2.84581 ± 0.00026
x1 = 0.05628	2.92956 ± 0.00026
x1 = 0.06235	3.00461 ± 0.00026

CCC[N+](=O)[O-] [1-nitropropane] + ClC(Cl)(Cl)Cl
298.15 K, two-cell dielectric cell
Details	relative permittivity at zero frequency
x1 = 0.002869	2.27091 ± 0.00059
x1 = 0.005861	2.3147 ± 0.0003
x1 = 0.01167	2.39918 ± 0.0003
x1 = 0.01742	2.48214 ± 0.0003
x1 = 0.0231	2.56405 ± 0.0003
x1 = 0.0253	2.59588 ± 0.0003
x1 = 0.02987	2.66163 ± 0.0003
x1 = 0.03553	2.74365 ± 0.0003
x1 = 0.04122	2.82491 ± 0.0003
x1 = 0.04993	2.95383 ± 0.00031
x1 = 0.05263	2.99295 ± 0.00031
x1 = 0.05816	3.07483 ± 0.00031
x1 = 0.06363	3.15625 ± 0.00031
